# How the values were obtained:
# MC4 receptor = MC4 receptor (Homo sapiens, UniProt P32245); experiment: MC4 receptor functional potency (EC50), Protocol E of WO 2005/077935; type: cell-based; details: read-out: functional potency at the MC4 receptor expressed as an EC50
# Description: MC5 and MC4 activity was determined as described by assay protocols D and E, respectively, in US2005/0176772 (pages 28-30).
# [1] = system: men with psychogenic and organic ED; details: cited from earlier work
# Chain of MC4 receptor (P32245 whole entry): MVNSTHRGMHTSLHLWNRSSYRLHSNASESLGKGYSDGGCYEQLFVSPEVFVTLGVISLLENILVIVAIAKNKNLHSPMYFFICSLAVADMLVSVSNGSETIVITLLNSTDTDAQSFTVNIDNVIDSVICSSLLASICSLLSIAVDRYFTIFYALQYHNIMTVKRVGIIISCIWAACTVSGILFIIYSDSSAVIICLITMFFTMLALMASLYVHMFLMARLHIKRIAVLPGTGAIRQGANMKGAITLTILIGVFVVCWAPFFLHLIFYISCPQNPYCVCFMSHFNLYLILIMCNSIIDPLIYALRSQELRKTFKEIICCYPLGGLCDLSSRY
EC50 (MC4 receptor) [nM],Compound,"increased sexual desire reported (share of doses) ([1]; 13/19 doses, questionnaire, P<0.01 vs placebo) [%]",subjects with severe nausea ([1]; dose of 0.025 mg/kg) [%],"penile erection (number of men) ([1]; in the absence of sexual stimulation, men with psychogenic and organic ED)",mean duration of Rigiscan tip rigidity >80% ([1]; penile rigidity monitored for 6 hours using RigiScan) [min]
1.5,"CO[C@H]1CN(C(=O)[C@@H]2CN(c3cccnn3)C[C@H]2c2ccc(F)cc2F)CC[C@]1(OC)c1ccccc1 [Example 8, 3-[(3R,4S)-3-(2,4-difluorophenyl)-4-{[(3S,4S)-3,4-dimethoxy-4-phenylpiperidin-1-yl]carbonyl}pyrrolidin-1-yl]pyridazine]",,,,
44,"CCO[C@@H]1CN(C(=O)[C@@H]2CN(c3cccnn3)C[C@H]2c2ccc(F)cc2F)CC[C@@]1(O)c1ccccc1 [Example 13, (3R,4R)-1-{[(3S,4R)-4-(2,4-difluorophenyl)-1-pyridazin-3-ylpyrrolidin-3-yl]carbonyl}-3-ethoxy-4-phenylpiperidin-4-ol]",,,,
11.5,"CO[C@H]1CN(C(=O)[C@@H]2CN(c3cccnn3)C[C@H]2c2ccc(F)cc2F)CC[C@]1(OC)c1ccc(F)cc1 [Example 15, 3-[(3R,4S)-3-(2,4-difluorophenyl)-4-{[(3S,4S)-4-(4-fluorophenyl)-3,4-dimethoxypiperidin-1-yl]carbonyl}pyrrolidin-1-yl]pyridazine]",,,,
,Melanotan II,68,12.9,17 of 20,41

# From patent publication US20080269233A1, “Piperidinoyl-Pyrrolidine and Piperidinoyl-Piperidine Compounds” (priority 2006, published 2008)
